Source: patent US20240262845A1, “PYRIDINIUM SALTS, METHODS OF MAKING, AND METHODS OF USE” (UNIVERSITY OF WYOMING, priority 2023, published 2024)
Counter-ions that a name gives are not always drawn.

How the values were obtained:
Exenatide = Exenatide (Heloderma suspectum, UniProt P26349); assay: Photochemical labeling of exenatide with pyridinium salt (General Procedure B, LC/MS); type: biochemical; conditions: trypsin digest
Description: General Procedure B: Photochemical Irradiation of Peptides and Proteins: To a 2 mL Pyrex LC/MS vial (Thermo model #03-391-39) were sequentially added solutions containing the desired biomolecule, glutathione (GSH), pyridinium salt, and ammonium acetate (NH4OAc). The resulting solution was diluted to a final volume of 500 μL and then sparged using nitrogen for a minimum of 30 minutes prior to irradiation. The actively sparging solution was then placed in an EvoluChem™ PhotoRedOx Box photoreactor that was equipped with a Kessil, PR160 427 nm LED Lamp and was then irradiated (100% lamp intensity) for the designated time at room temperature while maintaining active sparging. The resultant reaction mixture was then analyzed directly by LC/MS. […]
Labeling of Exenatide with Pyridinium Salt 2a (Exenatide-2a Conjugate). […] The resulting reaction mixture was directly analyzed by LC/MS using method A and was estimated to have proceeded in 70% conversion. […]
General Trypsin Digest Protocol B: For non-cystine bridged labeled proteins, a standard trypsin digest was modified as follows. […] The digested mixture was analyzed directly by LC/MS and MS/MS using method C.
Exenatide-2a Conjugate. […] The digested mixture was analyzed directly by LC-MS and MS/MS. […]

thioredoxin = biological target: T1, thioredoxin (Escherichia coli, UniProt P0AA25); assay: Photochemical labeling of thioredoxin with pyridinium salt (General Procedure B, LC/MS); type: biochemical; conditions: trypsin digest
T1 construct: purchased Sigma Aldrich; host or cells: E. coli
Description: General Procedure B: Photochemical Irradiation of Peptides and Proteins: To a 2 mL Pyrex LC/MS vial (Thermo model #03-391-39) were sequentially added solutions containing the desired biomolecule, glutathione (GSH), pyridinium salt, and ammonium acetate (NH4OAc). The resulting solution was diluted to a final volume of 500 μL and then sparged using nitrogen for a minimum of 30 minutes prior to irradiation. The actively sparging solution was then placed in an EvoluChem™ PhotoRedOx Box photoreactor that was equipped with a Kessil, PR160 427 nm LED Lamp and was then irradiated (100% lamp intensity) for the designated time at room temperature while maintaining active sparging. The resultant reaction mixture was then analyzed directly by LC/MS. Analysis of labeling outcomes using LC/MS was performed either by extracted ion chromatogram intensities (method A) or by integrating the area under the peaks associated with peptide content (method B). These values were totaled, and estimated percentages were assigned according to relative intensities of peaks or ion counts.
Labeling of Thioredoxin with Pyridinium Salt 2a (Thioredoxin-2a Conjugate). […] The reaction mixture was directly analyzed by LC/MS using method A and was estimated to have proceeded with 93% conversion and a 14.5:1 mono:di labeled ratio and 3% glutathionylation of all protein content. […]

Chain of Exenatide (P26349 48-86 limits assumed): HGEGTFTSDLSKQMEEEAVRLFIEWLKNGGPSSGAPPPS
T1 sequence (P0AA25 whole entry): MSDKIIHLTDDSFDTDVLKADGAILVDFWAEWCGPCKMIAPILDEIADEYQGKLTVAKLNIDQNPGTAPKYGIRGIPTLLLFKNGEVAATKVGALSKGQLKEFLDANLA

Compound: COC(=O)N(C)[n+]1c(C)cc(-c2ccc3cc(OC)ccc3c2)cc1C [pyridinium salt 2a, 1-((methoxycarbonyl)(methyl)amino)-4-(6-methoxynapthalen-2-yl)-2,6-dimethylpyridin-1-ium tetrafluoroborate]
- Modified Trp (Exenatide): Trp-025
- Modified Trp (thioredoxin): Trp-31
